pIC50: −log10 of the molar value.
Columns and labels:
Format in all cases: cell-based
Mer = target: T1, Mer (Homo sapiens, UniProt Q12866); experiment: Mer autophosphorylation ELISA in transient transfected 293A cells; settings: Table 3 Cellular Activities; MERTK-transfected 293A cells, phospho-Mer ELISA
T1 construct: host or cells: 293A cells (Thermo Fisher #R70507)
T1 sequence (Q12866 21-999): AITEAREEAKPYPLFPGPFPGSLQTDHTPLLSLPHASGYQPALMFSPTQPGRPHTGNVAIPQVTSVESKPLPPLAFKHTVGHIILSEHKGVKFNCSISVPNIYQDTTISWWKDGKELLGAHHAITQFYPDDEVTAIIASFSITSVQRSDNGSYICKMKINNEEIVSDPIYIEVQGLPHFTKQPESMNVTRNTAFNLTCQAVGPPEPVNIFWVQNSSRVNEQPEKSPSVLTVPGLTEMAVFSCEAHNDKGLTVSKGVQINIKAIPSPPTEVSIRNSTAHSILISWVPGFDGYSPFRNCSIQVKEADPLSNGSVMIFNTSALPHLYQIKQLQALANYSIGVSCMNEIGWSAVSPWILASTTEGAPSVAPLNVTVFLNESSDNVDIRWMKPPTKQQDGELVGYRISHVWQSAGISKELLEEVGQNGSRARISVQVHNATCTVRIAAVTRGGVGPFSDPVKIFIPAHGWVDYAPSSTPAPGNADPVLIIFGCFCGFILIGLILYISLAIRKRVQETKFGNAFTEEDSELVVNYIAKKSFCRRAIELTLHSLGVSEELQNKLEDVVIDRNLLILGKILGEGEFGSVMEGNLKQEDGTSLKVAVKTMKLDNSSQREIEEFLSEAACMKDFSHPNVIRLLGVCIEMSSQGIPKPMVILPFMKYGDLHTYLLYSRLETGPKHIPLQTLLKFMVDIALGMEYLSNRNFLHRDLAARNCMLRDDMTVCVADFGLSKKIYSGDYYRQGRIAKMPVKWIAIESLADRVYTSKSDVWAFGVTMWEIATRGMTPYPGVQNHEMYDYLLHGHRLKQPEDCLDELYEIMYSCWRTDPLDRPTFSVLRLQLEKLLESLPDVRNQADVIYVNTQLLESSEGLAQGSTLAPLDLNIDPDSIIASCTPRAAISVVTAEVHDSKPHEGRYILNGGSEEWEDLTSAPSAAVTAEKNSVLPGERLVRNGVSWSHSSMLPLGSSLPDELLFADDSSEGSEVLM
Method: 293A cells (Thermo Fisher #R70507) were seeded at 1.5×10^6 cells/well onto 100 mm dish (Greiner #664169), in DMEM (Thermo Fisher #11995-040) containing 10% FBS (Thermo Fisher #26140-079), 1% MEM NEAA (Thermo Fisher #11140-050), 1% GlutaMax (Thermo Fisher #35050-061), and 1% Penicillin Streptomycin (Thermo Fisher #15140-122). 293A cells were incubated at 37° C., 5% CO2 for 24 h and then transfected with 6μg MERTK DNA (Genecopoeia #EX-Z8208-M02) using TransIT LT1 transfection reagent (Mirus-Bio #MIR2305). After 24 h incubation, the transfected 293A cells were seeded at 1×10^5 cells/well onto 96-well plates (Corning #3904) in DMEM growth medium overnight. Test compounds were serially diluted to produce an 8-point dose curve in fresh serum-free medium to a final concentration of 0.3% DMSO (vehicle) and added to the cells and incubated for 1 h. Cells were then immediately lysed with 150 μL of cold 1× lysis buffer […], 137 mM sodium chloride, 2 mM EDTA, 10% glycerol, 1% NP-40 alternative, 1 mM activated sodium orthovanadate, 1 mM PefaBloc SC (Sigma-Aldrich #11429868001), protease/phosphatase inhibitor tablet (Thermo Fisher #A32959)]. Lysates were clarified by centrifugation and 50 μL/well added into the human phospho-Mer DuoSet IC ELISA (R&D Systems #DYC2579-2). Assay was performed according to manufacturer's instructions and sample phospho-Mer concentrations were extrapolated using human phospho-Mer control (R&D Systems #841793) as a standard. Positive control wells (100% activity) contained DMSO-treated cell lysates. Negative control wells (0% activity) contained reference inhibitor-treated cell lysates. IC50 values were calculated by nonlinear regression analysis using a 4-parameter logistic curve fit in ActivityBase XE (IDBS).

Met = Met (Homo sapiens, UniProt P08581); experiment: Met autophosphorylation ELISA in PC-3 cells; set-up: endogenous in cells; host or cells: PC-3 prostate cancer cells (ATCC #CRL-1435); settings: Table 3 Cellular Activities, HGF-stimulated, phospho-Met ELISA, read-out: c-Met IC50
Met, sequence (P08581 25-1390): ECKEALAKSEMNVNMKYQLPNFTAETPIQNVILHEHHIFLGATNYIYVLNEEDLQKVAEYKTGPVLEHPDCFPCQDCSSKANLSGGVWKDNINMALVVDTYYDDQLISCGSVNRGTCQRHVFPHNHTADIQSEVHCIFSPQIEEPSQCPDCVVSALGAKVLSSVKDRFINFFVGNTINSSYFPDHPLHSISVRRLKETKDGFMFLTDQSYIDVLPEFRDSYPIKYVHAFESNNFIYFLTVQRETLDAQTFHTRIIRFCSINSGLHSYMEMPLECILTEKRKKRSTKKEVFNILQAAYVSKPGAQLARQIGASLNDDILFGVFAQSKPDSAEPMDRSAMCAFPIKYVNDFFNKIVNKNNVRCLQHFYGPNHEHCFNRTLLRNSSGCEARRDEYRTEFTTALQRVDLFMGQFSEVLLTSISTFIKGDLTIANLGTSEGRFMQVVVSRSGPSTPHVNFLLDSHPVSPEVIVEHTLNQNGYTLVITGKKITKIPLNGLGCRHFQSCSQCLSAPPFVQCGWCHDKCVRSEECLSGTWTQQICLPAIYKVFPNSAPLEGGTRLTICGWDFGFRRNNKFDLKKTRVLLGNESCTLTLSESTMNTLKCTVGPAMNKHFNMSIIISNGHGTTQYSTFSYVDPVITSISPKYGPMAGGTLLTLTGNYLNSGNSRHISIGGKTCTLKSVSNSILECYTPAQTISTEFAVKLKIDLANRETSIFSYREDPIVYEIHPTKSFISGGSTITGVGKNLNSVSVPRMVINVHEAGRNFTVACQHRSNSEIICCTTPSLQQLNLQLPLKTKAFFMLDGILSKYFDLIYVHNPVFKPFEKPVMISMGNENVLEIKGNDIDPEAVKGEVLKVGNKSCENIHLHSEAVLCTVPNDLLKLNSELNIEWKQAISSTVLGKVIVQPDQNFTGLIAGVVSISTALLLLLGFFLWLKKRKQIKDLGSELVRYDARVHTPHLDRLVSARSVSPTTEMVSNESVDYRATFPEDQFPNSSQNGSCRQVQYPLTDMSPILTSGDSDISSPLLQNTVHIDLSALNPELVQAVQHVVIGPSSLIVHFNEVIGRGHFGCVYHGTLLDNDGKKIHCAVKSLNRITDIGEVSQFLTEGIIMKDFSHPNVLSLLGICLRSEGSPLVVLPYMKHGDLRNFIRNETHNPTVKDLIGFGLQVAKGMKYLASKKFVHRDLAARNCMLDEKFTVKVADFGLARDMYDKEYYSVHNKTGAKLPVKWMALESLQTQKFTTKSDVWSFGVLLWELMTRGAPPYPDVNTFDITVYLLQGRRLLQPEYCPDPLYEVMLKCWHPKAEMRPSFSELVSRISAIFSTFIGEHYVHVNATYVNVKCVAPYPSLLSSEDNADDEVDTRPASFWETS
Method: PC-3 prostate cancer cells (ATCC #CRL-1435) were seeded at 4×10^4 cells/well onto 24-well plates (Greiner #662165), in DMEM (Thermo Fisher #11995-040) containing 10% FBS (Thermo Fisher #26140-079), 1% MEM NEAA (Thermo Fisher #11140-050), 1% GlutaMax (Thermo Fisher #35050-061), and 1% Penicillin Streptomycin (Thermo Fisher #15140-122). PC-3 cells were incubated at 37° C., 5% CO2 for 24 h and then starved for 3 h in serum-free medium. Test compounds were serially diluted to produce an 8-point dose curve in fresh serum-free medium to a final concentration of 0.3% DMSO (vehicle) and added to the cells and incubated for 1 h. Cells were then stimulated with 100 ng/mL recombinant human HGF (R&D Systems #294-HG-250) for 10 min, washed with cold PBS, and immediately lysed with 130 μL of cold 1× lysis buffer [20 mM Tris, 137 mM sodium chloride, 2 mM EDTA, 10% glycerol, 1% NP-40 alternative, 1 mM activated sodium orthovanadate, 1 mM PefaBloc SC (Sigma-Aldrich #11429868001), protease/phosphatase inhibitor tablet (Thermo Fisher #A32959)]. Lysates were clarified by centrifugation and 100 μL/well added into the PathScan phospho-Met (panTyr) Sandwich ELISA (Cell Signaling Technology #7333). Assay was performed according to manufacturer's instructions. Positive control wells (100% activity) contained HGF-stimulated, DMSO-treated cell lysates. Negative control wells (0% activity) contained HGF-stimulated, reference inhibitor-treated cell lysates. IC50 values were calculated by nonlinear regression analysis using a 4-parameter logistic curve fit in ActivityBase XE (IDBS).

KDR = KDR (Homo sapiens, UniProt P35968); experiment: KDR autophosphorylation ELISA in HUVEC cells; set-up: endogenous in cells; host or cells: HUVEC (Lonza #C2519A); settings: Table 3 Cellular Activities, VEGF165-stimulated, phospho-KDR ELISA
KDR, sequence (P35968 20-1356): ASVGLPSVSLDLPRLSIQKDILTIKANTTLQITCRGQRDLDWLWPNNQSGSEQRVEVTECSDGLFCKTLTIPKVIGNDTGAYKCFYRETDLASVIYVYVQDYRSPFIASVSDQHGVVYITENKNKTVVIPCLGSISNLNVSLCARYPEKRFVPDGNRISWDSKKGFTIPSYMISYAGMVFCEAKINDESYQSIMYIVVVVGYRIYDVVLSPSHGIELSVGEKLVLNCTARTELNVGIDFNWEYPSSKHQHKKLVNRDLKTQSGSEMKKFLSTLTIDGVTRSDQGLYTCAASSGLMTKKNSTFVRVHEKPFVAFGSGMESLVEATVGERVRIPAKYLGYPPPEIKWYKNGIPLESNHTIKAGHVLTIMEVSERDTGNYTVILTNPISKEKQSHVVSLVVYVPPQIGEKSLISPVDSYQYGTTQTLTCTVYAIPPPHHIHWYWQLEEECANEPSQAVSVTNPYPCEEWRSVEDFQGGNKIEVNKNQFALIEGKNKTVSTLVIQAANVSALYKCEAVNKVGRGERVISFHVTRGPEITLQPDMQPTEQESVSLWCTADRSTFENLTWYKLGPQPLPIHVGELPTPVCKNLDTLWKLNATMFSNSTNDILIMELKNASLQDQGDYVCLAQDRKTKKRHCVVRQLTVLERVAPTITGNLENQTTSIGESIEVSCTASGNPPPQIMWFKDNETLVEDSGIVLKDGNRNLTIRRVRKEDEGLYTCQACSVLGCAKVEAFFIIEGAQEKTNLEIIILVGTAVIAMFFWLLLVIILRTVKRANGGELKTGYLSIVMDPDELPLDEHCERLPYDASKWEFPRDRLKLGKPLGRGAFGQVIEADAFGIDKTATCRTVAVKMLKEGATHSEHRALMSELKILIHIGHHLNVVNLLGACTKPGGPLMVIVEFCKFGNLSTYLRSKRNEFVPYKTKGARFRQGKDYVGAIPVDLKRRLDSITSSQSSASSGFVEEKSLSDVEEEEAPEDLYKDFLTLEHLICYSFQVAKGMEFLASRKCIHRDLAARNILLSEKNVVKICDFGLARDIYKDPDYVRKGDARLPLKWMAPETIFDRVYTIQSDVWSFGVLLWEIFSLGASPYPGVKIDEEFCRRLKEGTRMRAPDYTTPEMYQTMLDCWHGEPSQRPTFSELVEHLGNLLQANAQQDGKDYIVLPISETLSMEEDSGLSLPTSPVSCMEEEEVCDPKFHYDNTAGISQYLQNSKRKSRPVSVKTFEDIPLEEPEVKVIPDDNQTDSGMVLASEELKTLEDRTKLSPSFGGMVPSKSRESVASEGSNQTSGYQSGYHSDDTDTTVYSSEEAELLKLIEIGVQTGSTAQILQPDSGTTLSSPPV
Method: Human umbilical vein endothelial cells or HUVEC (Lonza #C2519A) were seeded at 2×10^4 cells/well onto 96-well plates (Corning #3904), in EGM-2 growth medium (Lonza #CC-3162) containing 1% Penicillin Streptomycin (Thermo Fisher #15140-122). HUVEC cells were incubated at 37° C., 5% CO2 for 24 h and then starved for 24 h in serum-free EBM-2 basal medium (Lonza #CC-3156) containing 1% Penicillin Streptomycin. Test compounds were serially diluted to produce an 8-point dose curve in fresh serum-free medium to a final concentration of 0.3% DMSO (vehicle) and added to the cells and incubated for 1 h. Cells were then stimulated with 100 ng/mL recombinant human VEGF165 (R&D Systems #293-VE-500) for 5 min, washed with cold PBS, and immediately lysed with 130 μL of cold 1× lysis buffer [20 mM Tris, 137 mM sodium chloride, 2 mM EDTA, 10% glycerol, 1% NP-40 alternative, 1 mM activated sodium orthovanadate, 1 mM PefaBloc SC (Sigma-Aldrich #11429868001), protease/phosphatase inhibitor tablet (Thermo Fisher #A32959)]. Lysates were collected and 100 μL/well added into the human phospho-KDR DuoSet IC ELISA (R&D Systems #DYC1766-2). Assay was performed according to manufacturer's instructions and sample phospho-KDR concentrations were extrapolated using human phospho-KDR control (R&D Systems #841421) as a standard. Positive control wells (100% activity) contained VEGF165-stimulated, DMSO-treated cell lysates. Negative control wells (0% activity) contained non-stimulated cell lysates. IC50 values were calculated by nonlinear regression analysis using a 4-parameter logistic curve fit in ActivityBase XE (IDBS).

SMILES	pIC50 (Mer)	pIC50 (Met)	pIC50 (KDR)
COCCOc1cnc2c(Oc3ccc(NC(=O)c4c(C)n(C)c(C)c(-c5coc6ccccc56)c4=O)cc3F)ccnc2c1 [Compound 265, 5-(1-Benzofuran-3-yl)-N-[3-fluoro-4-[[7-(2-methoxyethoxy)-1,5-naphthyridin-4-yl]oxy]phenyl]-1,2,6-trimethyl-4-oxopyridine-3-carboxamide]	6.00 to 6.52	6.00 to 6.52	6.00 to 6.52
CCc1c(C(=O)Nc2ccc(Oc3ccnc4cc(OCCOC)c(OC)nc34)c(F)c2)c(=O)c(-c2ccco2)c(C)n1C [Compound 326, 2-Ethyl-N-[3-fluoro-4-[[6-methoxy-7-(2-methoxyethoxy)-1,5-naphthyridin-4-yl]oxy]phenyl]-5-(furan-2-yl)-1,6-dimethyl-4-oxopyridine-3-carboxamide]	≥ 7.00	≥ 7.00	≥ 7.00
COc1cc2nccc(Oc3ccc(NC(=O)c4c(C)ncc(-c5ccoc5)c4O)cc3F)c2nc1OC [Compound 122, N-[4-[(6,7-Dimethoxy-1,5-naphthyridin-4-yl)oxy]-3-fluorophenyl]-5-(furan-3-yl)-4-hydroxy-2-methylpyridine-3-carboxamide]	≥ 7.00	≥ 7.00	≥ 7.00
COc1cc2nccc(Oc3ccc(NC(=O)c4c5n(cc(-c6ccsc6)c4=O)CCOC5)cc3F)c2nc1OC [Compound 300, N-[4-[(6,7-Dimethoxy-1,5-naphthyridin-4-yl)oxy]-3-fluorophenyl]-8-oxo-7-thiophen-3-yl-3,4-dihydro-1H-pyrido[2,1-c][1,4]oxazine-9-carboxamide]	≥ 7.00	≥ 7.00	6.52 to 7.00
CCc1c(C(=O)Nc2ccc(Oc3ccnc4cc(OC)c(OC)nc34)cc2)c(=O)c(-c2ccco2)c(C)n1C [Compound 325, N-[4-[(6,7-Dimethoxy-1,5-naphthyridin-4-yl)oxy]phenyl]-2-ethyl-5-(furan-2-yl)-1,6-dimethyl-4-oxopyridine-3-carboxamide]	≥ 7.00	6.00 to 6.52	6.00 to 6.52

From patent US20230151003A1, “COMPOUNDS AND METHODS OF USE” (Exelixis, Inc., priority 2020, published 2023)
